According to publication PMC2666327 (Chembiochem : a European journal of chemical biology, 2008):

Target: T1, Type I Ins(1,4,5)P3 5-phosphatase (Homo sapiens, UniProt Q14642)
T1 sequence (Q14642 1-412 limits assumed): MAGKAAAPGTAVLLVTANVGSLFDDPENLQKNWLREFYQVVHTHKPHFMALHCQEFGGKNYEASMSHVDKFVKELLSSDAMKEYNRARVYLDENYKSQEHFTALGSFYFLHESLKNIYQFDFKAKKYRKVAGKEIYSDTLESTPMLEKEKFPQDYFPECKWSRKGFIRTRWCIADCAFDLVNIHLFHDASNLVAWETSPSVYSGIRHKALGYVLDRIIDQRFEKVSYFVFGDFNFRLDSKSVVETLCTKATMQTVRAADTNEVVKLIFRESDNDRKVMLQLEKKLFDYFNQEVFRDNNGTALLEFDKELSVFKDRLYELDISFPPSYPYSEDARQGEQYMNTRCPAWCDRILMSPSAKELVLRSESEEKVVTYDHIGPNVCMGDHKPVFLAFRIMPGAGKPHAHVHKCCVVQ
Test: [3H]Ins
Format: biochemical

- IC50: 68 ± 16 µM
Compound: O=P(O)(O)Oc1ccc(OP(=O)(O)O)c(OP(=O)(O)O)c1OCc1ccccc1 [compound 30, 3-benzyloxybenzene 1,2,4-trisphosphate]
